From US8618154B2, “LXR modulators” (Bristol-Myers Squibb Company, priority 2009, dated 2013)

Test system: ABCA1 gene expression
Experiment: Human whole blood assay (hWBA), ABCA1 mRNA induction
Format: cell-based
Conditions: Homo sapiens; full LXRα and LXRβ pan agonist used as reference; read-out: EC50 of reference compound
Description: Human whole blood was collected in EDTA containing tubes and 0.5 mL aliquots were immediately mixed in a 96 well block with the appropriate serial dilution of test compound, in 0.5% DMSO. Compounds were incubated with blood at 37° C. with constant rocking for 4 hours. After incubation, cells were lysed in ABI Nucleic Acid Purification Lysis Solution (Applied Biosystems catalog #4305895) and frozen at −80° C. Following cell lysis, total RNA was purified using an ABI 6100 RNA prep station according to the protocol provided by the manufacturer. cDNAs were synthesized, and mRNAs were quantitated using SYBR-Green Quantitative PCR (Q-PCR) on an ABI Prism 7900HT Sequence Detection System and reagents from Quanta Bioscience Inc (Quanta Bioscience catalog #95047 and 95055).
The quantity of each mRNA was determined by the ΔΔCT method (Michael W. Pfaffl. A new mathematical model for relative quantification in real-time RT-PCR. Nucleic Acids Research, 2001, Vol. 29, No. 9 e45) and normalized to the quantity of two control mRNAs, i.e. ribosomal protein L-30 (L-30) and beta-2-microglobulin (B2M). The induction of ABCA1 and ABCG1 by test compound was graphed as a percent of the reference compound, 2-(4-(5-(5-cyano-1-(2,4-difluorobenzyl)-6-oxo-4-(trifluoromethyl)-1,6-dihydropyridin-2-yl)thiophen-2-yl)-3-methylphenyl)acetic acid, and potency (EC50) and activity (% MAX) were calculated by fitting a sigmoidal response curve as a function of log transformed compound concentration using XLFit software according to the equation y=A+((B−A)/(1+((C/x)^D))).

Structure (SMILES): Cc1cc(CC(=O)O)ccc1-c1ccc(-c2cc(C(F)(F)F)c(C#N)c(=O)n2Cc2ccc(F)cc2F)s1 [2-(4-(5-(5-cyano-1-(2,4-difluorobenzyl)-6-oxo-4-(trifluoromethyl)-1,6-dihydropyridin-2-yl)thiophen-2-yl)-3-methylphenyl)acetic acid, reference compound]
- EC50: 1000 to 2000 nM
